Values joined by “and” are separate entries in the source; they are usually repeats but may differ in a detail not shown here. Equal values may be shown once. Toxic doses and inconclusive results are not listed. Rule for the calls: active = survival T/C of 150% or more; inactive = T/C below 125% in these data. Peptide text beside a SMILES is read from it. * marks the point of attachment. Boc = CC(C)(C)OC(=O)*; NHNH2 = NN*
System: P388 leukemia ip, CD2F1 mice, survival T/C
Assay: NCI In Vivo Anticancer Drug Screen. Data for tumor model P388 Leukemia (intraperitoneal) in CD2F1 (CDF1) mice
Conditions: endpoint: median survival time, higher = longer survival
In short: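 Mice carrying the transplanted tumor received test compound or vehicle. Survival was recorded in each group, and the value is the treated-group measurement divided by that of the vehicle-treated control group.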

[1] = dose: 25.0 mg/kg/injection, schedule: Q01DX009 (ip), vehicle: saline with Tween-80
[2] = dose: 50.0 mg/kg/injection, schedule: Q01DX009 (ip), vehicle: saline with Tween-80
[3] = dose: 60.0 mg/kg/injection, schedule: Q01DX005 (ip), vehicle: saline with Tween-80
[4] = dose: 100.0 mg/kg/injection, schedule: Q01DX001 (ip), vehicle: saline with Tween-80
[5] = dose: 200.0 mg/kg/injection, schedule: Q01DX001 (ip), vehicle: saline with Tween-80
[6] = dose: 120.0 mg/kg/injection, schedule: Q01DX005 (ip), vehicle: saline with Tween-80
[7] = dose: 240.0 mg/kg/injection, schedule: Q01DX005 (ip), vehicle: saline with Tween-80
[8] = dose: 50.0 mg/kg/injection, schedule: Q01DX009 (ip), vehicle: other
[9] = dose: 100.0 mg/kg/injection, schedule: Q01DX009 (ip), vehicle: other

Measured: T/C

CCCCN(CCCC)C(=N)/C=C/c1ccccc1
inactive: dose: 6.25 mg/kg/injection, schedule: Q01DX005 (ip), vehicle: Klucel (hydroxypropylcellulose) (HPC) 97 % of control | dose: 12.5 mg/kg/injection, schedule: Q01DX005 (ip), vehicle: Klucel (hydroxypropylcellulose) (HPC) 103 % of control

Cc1cc(C(C)(CC(C)C)c2ccc(O)c(C)c2)ccc1O
inactive: [1] 116 % of control | [2] 98 % of control

CC1(C=O)CCCC2(C)[C@@H]1CCC13CC(CC[C@H]12)C(C(=O)O)C3 (stereo not given in full)
inactive: dose: 3.25 mg/kg/injection, schedule: Q01DX005 (ip), vehicle: Klucel (hydroxypropylcellulose) (HPC) 86 % of control | dose: 6.5 mg/kg/injection, schedule: Q01DX005 (ip), vehicle: Klucel (hydroxypropylcellulose) (HPC) 90 % of control | dose: 13.0 mg/kg/injection, schedule: Q01DX005 (ip), vehicle: Klucel (hydroxypropylcellulose) (HPC) 87 % of control

O=c1oc2ccccc2cc1Cc1cc2ccccc2oc1=O
inactive: dose: 50.0 mg/kg/injection, schedule: Q01DX009 (ip), vehicle: Klucel (hydroxypropylcellulose) (HPC) 103 % of control | dose: 100.0 mg/kg/injection, schedule: Q01DX009 (ip), vehicle: Klucel (hydroxypropylcellulose) (HPC) 97 % of control

O=C(Cc1nc2ccc(Cl)cc2nc1CC(=O)c1ccccc1)c1ccccc1
inactive: dose: 15.0 mg/kg/injection, schedule: Q01DX005 (ip), vehicle: saline with Tween-80 102 % of control | dose: 30.0 mg/kg/injection, schedule: Q01DX005 (ip), vehicle: saline with Tween-80 111 % of control | [3] 100 % of control and 107 % of control

CN(CNC(N)=O)N=O
inactive: dose: 50.0 mg/kg/injection, schedule: Q01DX009 (ip), vehicle: water 99 % of control | dose: 100.0 mg/kg/injection, schedule: Q01DX009 (ip), vehicle: water 108 % of control | dose: 200.0 mg/kg/injection, schedule: Q01DX009 (ip), vehicle: water 107 % of control

CCOP(=O)(OCC)/C(C#N)=C\c1ccc(N(C)C)cc1
inactive: [4] 100 % of control | [5] 104 % of control | dose: 400.0 mg/kg/injection, schedule: Q01DX001 (ip), vehicle: saline with Tween-80 100 % of control

Cc1ccc(S(=O)(=O)N/N=C/C(Br)=C(/Br)C(=O)O)cc1
active: dose: 25.0 mg/kg/injection, schedule: Q01DX009 (ip), vehicle: distilled water + Tween-80 154 % of control and 171 % of control | dose: 50.0 mg/kg/injection, schedule: Q01DX009 (ip), vehicle: distilled water + Tween-80 157 % of control and 166 % of control

COc1ccc(C(Cc2ccccc2)C2(O)C(=O)NC(=O)NC2=O)cc1 (stereo not given)
inactive: [3] 103 % of control | [6] 99 % of control | [7] 98 % of control

CSc1c(Cl)cc(Cl)cc1C(=O)O
inactive: dose: 16.5 mg/kg/injection, schedule: Q01DX009 (ip), vehicle: saline with Tween-80 100 % of control and 110 % of control | [1] 105 % of control and 106 % of control | dose: 37.5 mg/kg/injection, schedule: Q01DX009 (ip), vehicle: saline with Tween-80 117 % of control and 97 % of control | dose: 50.0 mg/kg/injection, schedule: Q01DX009 (ip), vehicle: saline + alcohol 112 % of control | dose: 100.0 mg/kg/injection, schedule: Q01DX009 (ip), vehicle: saline + alcohol 110 % of control | dose: 200.0 mg/kg/injection, schedule: Q01DX009 (ip), vehicle: saline + alcohol 112 % of control

N=C(N)c1ccc2[nH]c(/C=C/c3cc4ccc(C(=N)N)cc4o3)cc2c1
active: dose: 100.0 mg/kg/injection, schedule: Q04DX003 (ip), vehicle: suspension in saline 170 % of control

CC(=O)Nc1ccc(C(O)C2=CC(=O)c3ccccc3C2=O)cc1 (stereo not given)
inactive: dose: 6.25 mg/kg/injection, schedule: Q01DX009 (ip), vehicle: saline 97 % of control | dose: 12.5 mg/kg/injection, schedule: Q01DX009 (ip), vehicle: saline 97 % of control | dose: 25.0 mg/kg/injection, schedule: Q01DX009 (ip), vehicle: saline 86 % of control | dose: 25.0 mg/kg/injection, schedule: Q01DX009 (ip), vehicle: suspension in saline 103 % of control | dose: 50.0 mg/kg/injection, schedule: Q01DX009 (ip), vehicle: suspension in saline 114 % of control | dose: 100.0 mg/kg/injection, schedule: Q01DX009 (ip), vehicle: suspension in saline 113 % of control

CC(CCc1cccc2ccccc12)(C(=O)O)C(=O)O
inactive: dose: 50.0 mg/kg/injection, schedule: Q01DX009 (ip), vehicle: saline sonified 90 % of control | dose: 100.0 mg/kg/injection, schedule: Q01DX009 (ip), vehicle: saline sonified 100 % of control | dose: 200.0 mg/kg/injection, schedule: Q01DX009 (ip), vehicle: saline sonified 90 % of control

O=C1CCC(c2n[nH]c(=S)o2)N1 (stereo not given)
inactive: [3] 104 % of control | [6] 105 % of control | [7] 108 % of control

c1ccc2ccccc2c1
inactive: [8] 100 % of control | [9] 104 % of control | dose: 200.0 mg/kg/injection, schedule: Q01DX009 (ip), vehicle: other 107 % of control

CC(C)(C)c1cc(C/C=C/c2ccccc2)c(O)c(C(C)(C)C)c1
inactive: dose: 2.5 mg/kg/injection, schedule: Q01DX009 (ip), vehicle: saline with Tween-80 90 % of control | dose: 5.0 mg/kg/injection, schedule: Q01DX009 (ip), vehicle: saline with Tween-80 99 % of control | dose: 10.0 mg/kg/injection, schedule: Q01DX009 (ip), vehicle: saline with Tween-80 96 % of control

[O-][N+]1(CC[N+]2([O-])CCCCC2)CCCCC1
inactive: dose: 60.0 mg/kg/injection, schedule: Q01DX005 (ip), vehicle: saline 97 % of control | dose: 120.0 mg/kg/injection, schedule: Q01DX005 (ip), vehicle: saline 100 % of control | dose: 240.0 mg/kg/injection, schedule: Q01DX005 (ip), vehicle: saline 97 % of control

CCOC(=O)N1C(=O)C2C3CCC(C2C1=O)C1C2C(=O)N(C(=O)OCC)C(=O)C2C31 (stereo not given)
active: dose: 100.0 mg/kg/injection, schedule: Q01DX009 (ip), vehicle: saline with Tween-80 157 % of control | dose: 200.0 mg/kg/injection, schedule: Q01DX009 (ip), vehicle: saline with Tween-80 222 % of control
inactive: dose: 12.5 mg/kg/injection, schedule: Q01DX009 (ip), vehicle: saline with Tween-80 103 % of control | [1] 104 % of control and 111 % of control | [2] 115 % of control

C=CCCCCCCCCCC(CCCCCC)C(=O)O (stereo not given)
inactive: dose: 50.0 mg/kg/injection, schedule: Q01DX001 (ip), vehicle: saline with Tween-80 91 % of control | [4] 100 % of control | [5] 95 % of control

c1onc2cc3c(cc12)OCO3
inactive: dose: 0.39 mg/kg/injection, schedule: Q01DX009 (ip), vehicle: Klucel (hydroxypropylcellulose) (HPC) 86 % of control and 88 % of control | dose: 0.78 mg/kg/injection, schedule: Q01DX009 (ip), vehicle: Klucel (hydroxypropylcellulose) (HPC) 89 % of control and 95 % of control | dose: 1.56 mg/kg/injection, schedule: Q01DX009 (ip), vehicle: Klucel (hydroxypropylcellulose) (HPC) 124 % of control and 89 % of control and 93 % of control | dose: 3.13 mg/kg/injection, schedule: Q01DX009 (ip), vehicle: Klucel (hydroxypropylcellulose) (HPC) 99 % of control and 92 % of control | dose: 12.5 mg/kg/injection, schedule: Q01DX009 (ip), vehicle: Klucel (hydroxypropylcellulose) (HPC) 89 % of control | dose: 25.0 mg/kg/injection, schedule: Q01DX009 (ip), vehicle: Klucel (hydroxypropylcellulose) (HPC) 93 % of control

CC(C)CC(NC(=O)C(Cc1c[nH]c2ccccc12)NC(=O)OC(C)(C)C)C(=O)NN (stereo not drawn) (Boc-Trp-Leu-NHNH2; configuration not given here)
inactive: dose: 12.5 mg/kg/injection, schedule: Q01DX009 (ip), vehicle: other 100 % of control | dose: 25.0 mg/kg/injection, schedule: Q01DX009 (ip), vehicle: other 94 % of control | [8] 97 % of control | [9] 105 % of control and 110 % of control

COc1ccc(S(=O)(=O)c2cnc(N)nc2N)cc1
inactive: dose: 100.0 mg/kg/injection, schedule: Q01DX001 (ip), vehicle: saline 97 % of control | dose: 200.0 mg/kg/injection, schedule: Q01DX001 (ip), vehicle: saline 93 % of control | dose: 400.0 mg/kg/injection, schedule: Q01DX001 (ip), vehicle: saline 90 % of control

Cc1cccc(C(C)(C)C)c1NC(=O)CCc1nnc(N)n1N
inactive: dose: 50.0 mg/kg/injection, schedule: Q01DX005 (ip), vehicle: saline with Tween-80 111 % of control | dose: 100.0 mg/kg/injection, schedule: Q01DX005 (ip), vehicle: saline with Tween-80 100 % of control | dose: 200.0 mg/kg/injection, schedule: Q01DX005 (ip), vehicle: saline with Tween-80 101 % of control

Source: PubChem BioAssay AID330 (DTP/NCI, 2004)
